Measurements published in the NIST ThermoML archive (doi:10.1021/je400733m).

Conditions: for vapor or sublimation pressure: Liquid; for mass density: Gas, isochoric method

F [hydrogen fluoride]
Conditions | vapor or sublimation pressure [kPa]
293.12 K | 102.1
303.13 K | 145.3
313.16 K | 202.1
323.08 K | 274.7
333.13 K | 368.7
343.1 K | 487.1
353.14 K | 636.4
363.17 K | 822.2
373.14 K | 1048.5
383.21 K | 1327.1
393.11 K | 1659.3
403.1 K | 2060.2
413.14 K | 2541.3
423.14 K | 3111.5
433.06 K | 3778.1
443.01 K | 4566
454.15 K | 5611.6

Conditions | mass density [kg/m3]
293.15 K, 27.7 kPa | 0.232
293.15 K, 29 kPa | 0.245
293.15 K, 31.8 kPa | 0.282
293.15 K, 34.5 kPa | 0.32
293.15 K, 37.2 kPa | 0.36
293.15 K, 41.5 kPa | 0.438
293.15 K, 55.5 kPa | 0.802
293.15 K, 69.3 kPa | 1.311
293.15 K, 83.3 kPa | 1.954
293.15 K, 98.6 kPa | 2.86
303.15 K, 26.4 kPa | 0.212
303.15 K, 29.4 kPa | 0.239
303.15 K, 34.2 kPa | 0.283
303.15 K, 38 kPa | 0.32
303.15 K, 41.5 kPa | 0.356
303.15 K, 45.1 kPa | 0.395
303.15 K, 52.7 kPa | 0.491
303.15 K, 64.8 kPa | 0.694
303.15 K, 78 kPa | 0.999
303.15 K, 90 kPa | 1.359
303.15 K, 102.6 kPa | 1.818
303.15 K, 114.8 kPa | 2.327
303.15 K, 126.7 kPa | 2.883
303.15 K, 141.6 kPa | 3.802
313.15 K, 29.3 kPa | 0.227
313.15 K, 35.9 kPa | 0.28
313.15 K, 36.4 kPa | 0.28
313.15 K, 39.6 kPa | 0.307
313.15 K, 41.4 kPa | 0.326
313.15 K, 42.5 kPa | 0.331
313.15 K, 48.3 kPa | 0.385
313.15 K, 53.3 kPa | 0.426
313.15 K, 55.1 kPa | 0.447
313.15 K, 57 kPa | 0.461
313.15 K, 62.1 kPa | 0.51
313.15 K, 68.9 kPa | 0.59
313.15 K, 74 kPa | 0.644
313.15 K, 82.8 kPa | 0.767
313.15 K, 90.7 kPa | 0.883
313.15 K, 96.6 kPa | 0.992
313.15 K, 109.1 kPa | 1.246
313.15 K, 110.3 kPa | 1.285
313.15 K, 124.3 kPa | 1.653
313.15 K, 129.3 kPa | 1.787
313.15 K, 138 kPa | 2.078
313.15 K, 148 kPa | 2.417
313.15 K, 152 kPa | 2.579
313.15 K, 165.7 kPa | 3.118
313.15 K, 165.8 kPa | 3.133
313.15 K, 180.3 kPa | 3.777
313.15 K, 180.5 kPa | 3.797
323.15 K, 55 kPa | 0.422
323.15 K, 100.9 kPa | 0.842
323.15 K, 117.9 kPa | 1.05
323.15 K, 156.9 kPa | 1.731
323.15 K, 181.4 kPa | 2.343
323.15 K, 204.5 kPa | 3.061
323.15 K, 228.7 kPa | 3.949
333.15 K, 29.2 kPa | 0.218
333.15 K, 99.9 kPa | 0.759
333.15 K, 112.6 kPa | 0.863
333.15 K, 142.2 kPa | 1.147
333.15 K, 163.7 kPa | 1.386
333.15 K, 180 kPa | 1.61
333.15 K, 199.2 kPa | 1.904
333.15 K, 222.8 kPa | 2.36
333.15 K, 234.8 kPa | 2.612
333.15 K, 246.2 kPa | 2.902
333.15 K, 270.8 kPa | 3.552
333.15 K, 276.4 kPa | 3.753
333.15 K, 305.8 kPa | 4.693
333.15 K, 317.3 kPa | 5.162
333.15 K, 341.5 kPa | 6.088
333.15 K, 343.5 kPa | 6.229
343.15 K, 24.6 kPa | 0.179
343.15 K, 67.3 kPa | 0.488
343.15 K, 141.7 kPa | 1.05
343.15 K, 244.7 kPa | 2.094
343.15 K, 289.6 kPa | 2.791
343.15 K, 340.6 kPa | 3.856
343.15 K, 375.4 kPa | 4.777
343.15 K, 414.8 kPa | 6.034
343.15 K, 455.3 kPa | 7.553
353.15 K, 50.5 kPa | 0.352
353.15 K, 118.5 kPa | 0.833
353.15 K, 189 kPa | 1.359
353.15 K, 279.3 kPa | 2.154
353.15 K, 334.2 kPa | 2.782
353.15 K, 391.1 kPa | 3.617
353.15 K, 450.1 kPa | 4.75
353.15 K, 509 kPa | 6.216
353.15 K, 583.5 kPa | 8.604
363.15 K, 78.7 kPa | 0.523
363.15 K, 151.2 kPa | 1.024
363.15 K, 268.6 kPa | 1.886
363.15 K, 349.7 kPa | 2.574
363.15 K, 435.2 kPa | 3.463
363.15 K, 519.5 kPa | 4.617
363.15 K, 610.3 kPa | 6.318
363.15 K, 704.7 kPa | 8.73
363.15 K, 792.4 kPa | 11.696
373.15 K, 59.5 kPa | 0.389
373.15 K, 135.1 kPa | 0.89
373.15 K, 249.7 kPa | 1.674
373.15 K, 360.6 kPa | 2.495
373.15 K, 444.9 kPa | 3.191
373.15 K, 555.7 kPa | 4.277
373.15 K, 661.8 kPa | 5.611
373.15 K, 768.8 kPa | 7.405
373.15 K, 872.6 kPa | 9.733
373.15 K, 971.7 kPa | 12.608
383.15 K, 109.3 kPa | 0.69
383.15 K, 256.8 kPa | 1.656
383.15 K, 388.4 kPa | 2.569
383.15 K, 518.3 kPa | 3.557
383.15 K, 666.4 kPa | 4.865
383.15 K, 794.6 kPa | 6.263
383.15 K, 928.9 kPa | 8.187
383.15 K, 1067 kPa | 10.825
383.15 K, 1201 kPa | 14.245
393.15 K, 172.3 kPa | 1.108
393.15 K, 337.7 kPa | 2.178
393.15 K, 505.5 kPa | 3.335
393.15 K, 674.9 kPa | 4.611
393.15 K, 840.7 kPa | 6.052
393.15 K, 1013 kPa | 7.764
393.15 K, 1175 kPa | 10.132
393.15 K, 1344 kPa | 13.239
393.15 K, 1498 kPa | 17.048
403.15 K, 240.6 kPa | 1.492
403.15 K, 449.3 kPa | 2.829
403.15 K, 652.2 kPa | 4.216
403.15 K, 862.3 kPa | 5.791
403.15 K, 1069 kPa | 7.588
403.15 K, 1278 kPa | 9.802
403.15 K, 1491 kPa | 12.74
403.15 K, 1709 kPa | 16.83
403.15 K, 1897 kPa | 21.668
413.15 K, 222.3 kPa | 1.32
413.15 K, 371.4 kPa | 2.232
413.15 K, 508.9 kPa | 3.095
413.15 K, 683.2 kPa | 4.229
413.15 K, 883.6 kPa | 5.621
413.15 K, 1059 kPa | 6.93
413.15 K, 1234 kPa | 8.38
413.15 K, 1399 kPa | 9.914
413.15 K, 1557 kPa | 11.607
413.15 K, 1728 kPa | 13.746
413.15 K, 2034 kPa | 18.831
413.15 K, 2223 kPa | 23.108
433.15 K, 309.8 kPa | 1.785
433.15 K, 698.6 kPa | 4.1
433.15 K, 1068.9 kPa | 6.452
433.15 K, 1452 kPa | 9.113
433.15 K, 1847 kPa | 12.286
433.15 K, 2258 kPa | 16.303
433.15 K, 2635 kPa | 21.034
433.15 K, 3001 kPa | 27.275
433.15 K, 3365 kPa | 36.362
433.15 K, 3703 kPa | 50.976
453.15 K, 476.5 kPa | 2.703
453.15 K, 1014 kPa | 5.793
453.15 K, 1550 kPa | 9.121
453.15 K, 2081 kPa | 12.797
453.15 K, 2621 kPa | 17.077
453.15 K, 3133 kPa | 21.99
453.15 K, 3651 kPa | 28.309
453.15 K, 4173 kPa | 36.974
453.15 K, 4738 kPa | 51.158
453.15 K, 5189 kPa | 73.046
473.15 K, 398.6 kPa | 2.061
473.15 K, 719.1 kPa | 3.785
473.15 K, 1113 kPa | 5.969
473.15 K, 1557 kPa | 8.541
473.15 K, 1986 kPa | 11.159
473.15 K, 2275 kPa | 13.033
473.15 K, 2590 kPa | 15.167
473.15 K, 2992 kPa | 18.107
473.15 K, 3473 kPa | 22.184
473.15 K, 4349 kPa | 30.552
473.15 K, 4995 kPa | 38.609
473.15 K, 5640 kPa | 49.429
473.15 K, 6393 kPa | 68.899
473.15 K, 7041 kPa | 98.187
